Patent US4169015A, “Novel chromogenic thrombin substrates” (AB Kabi, priority 1975, dated 1979)
≈ marks a conversion by molar mass, not a printed value. Where two headings read alike, the source gives them in different places. Where a SMILES comes first, the peptide text is derived from it. The star is where a group is joined. pNA = O=[N+]([O-])c1ccc(N*)cc1; Bz = O=C(c1ccccc1)*

Key:
thrombin = assay: Relative reaction velocity between thrombin and chromogenic substrate (p-nitroaniline release, 405 nm); type: biochemical; details: for Rel. reaction velocity: thrombin 0.4 NIH/ml, substrate 0.1 μmol/ml, relative, S-2160 = 100
Text: The substrates prepared according to the examples are used for determination of thrombin as stated below.
The determination principle is based upon the fact that the splitting product formed by enzymatic hydrolysis has a UV-spectrum which is essentially different from that of the substrate. Thus, the substrate according to Example X, H--D--Phe--Pip--Arg--pNA, has an absorption maximum at 315 nm and the molar extinction coefficient of 12500. At 405 nm the absorption of the substrate has almost completely stopped. p-Nitroaniline, split off from the substrate during the enzymatic hydrolysis, has an absorption maximum at 380 nm and a molar extinction coefficient of 13200 which at 405 nm only had decreased to 9620. By spectrophotometrical determination at 405 nm it is thus possible to easily follow the amount of p-nitroaniline formed, which is proportional to the degree of the enzymatic hydrolysis which in its turn is determined by the active amount of thrombin. For other substrates according to the invention rather identical conditions exist and for this reason the determinations have consistently been made at 405 nm.
They react 4 times more rapidly with thrombin than the previously best substrate, S-2160, and are further about 10 times more soluble in water than S-2160.
Relative reactions velocity between thrombin (0.4 NIH/ml) and substrate (0.1 μmol/ml).

Solubility in water = type: physicochemical
[1] = water, Table I, in H2O, read-out: Solubility in H2O

SMILES | Rel. reaction velocity (thrombin) | decrease of the velocity with which thrombin splits the substrate (thrombin; versus S-2160 (benzoyl replaced with H)) | solubility (Solubility in water; [1]) [µg/mL] | solubility (Solubility in water; medium not stated, read-out: solubility) [µg/mL] | solubility compared with S-2160 (in words) (Solubility in water; versus S-2160)
CC(C)[C@H](NC(=O)[C@@H](N)Cc1ccccc1)C(=O)N[C@@H](CCCNC(=N)N)C(=O)Nc1ccc([N+](=O)[O-])cc1 [B, H-Phe-Val-Arg-pNA, reference compound] (H-Phe-Val-Arg-pNA) | 3 | about 30 times | 1000 (≈ 1850 µM) |  | 
CC(C)[C@H](NC(=O)[C@H](Cc1ccccc1)NC(=O)c1ccccc1)C(=O)N[C@@H](CCCNC(=N)N)C(=O)Nc1ccc([N+](=O)[O-])cc1 [Example S-2160, Bz-Phe-Val-Arg-pNA, reference compound] (Bz-Phe-Val-Arg-pNA) | 100 |  | 100 (≈ 155 µM) | 1000 (≈ 1550 µM) | considerably more soluble
N=C(N)NCCC[C@H](NC(=O)[C@@H]1CCCCN1C(=O)[C@H](N)Cc1ccccc1)C(=O)Nc1ccc([N+](=O)[O-])cc1 [Example X, H--D--Phe--Pip--Arg--pNA.2HCl] | 420 |  | 3000 |  | 
N=C(N)NCCC[C@H](NC(=O)[C@@H]1CCCN1C(=O)[C@@H](N)Cc1ccccc1)C(=O)Nc1ccc([N+](=O)[O-])cc1 [IX, H--Phe--Pro--Arg--pNA.2HCl] | 15 |  | 1000 |  | 
N=C(N)NCCC[C@H](NC(=O)[C@@H]1CCCN1C(=O)[C@H](N)Cc1ccccc1)C(=O)Nc1ccc([N+](=O)[O-])cc1 [VIII, H--D--Phe--Pro--Arg--pNA.2HCl] | 400 |  | 3000 |  | 
N=C(N)NCCC[C@H](NC(=O)[C@@H]1CCCCN1C(=O)[C@@H](N)Cc1ccccc1)C(=O)Nc1ccc([N+](=O)[O-])cc1 [XI, H--Phe--Pip--Arg--pNA.2HCl] | 9 |  | 1000 |  | 
